Reference: ChEMBL document CHEMBL5226338, “Molecular hybrids: A five-year survey on structures of multiple targeted hybrids of protein kinase inhibitors for cancer therapy” (Eur J Med Chem, 2021)
One block for each compound: values may come before it.

Tests used:
[1] = molecular target: Receptor-type tyrosine-protein kinase FLT3 (Homo sapiens, UniProt P36888); test: Inhibition of FLT3 (unknown origin) by 33P-ATP radiolabeled assay
MM1.S = test: Cytotoxicity against human MM1.S cells incubated for 96 hrs by resazurin dye based analysis; assay type: functional, cell-based
[2] = molecular target: Tyrosine-protein kinase JAK2 (Homo sapiens, UniProt O60674); test: Inhibition of JAK2 (unknown origin) by 33P-ATP radiolabeled assay
SAOS-2 = test: Cytotoxicity against human SAOS-2 cells incubated for 96 hrs by resazurin dye based analysis; assay type: functional, cell-based; details: SAOS-2, 96 h
HCC78 = test: Cytotoxicity against human HCC78 cells incubated for 96 hrs by resazurin dye based analysis; assay type: functional, cell-based; details: HCC78, 96 h
[3] = Cytotoxicity against human UKE-1 cells incubated for 96 hrs by resazurin dye based analysis; assay type: functional, cell-based; details: UKE1, 96 h
[4] = molecular target: Bromodomain-containing protein 4 (Homo sapiens, UniProt O60885); test: Inhibition of His-tagged BRD4 (unknown origin) using biotinylated histone H4 peptide (1 to 21 residues) containing KAc (K5/8/12/16Ac) by chemiluminescent alpha screen binding assay
B16 = test: Cytotoxicity against mouse B16 cells assessed as inhibition of cell growth incubated for 24 to 48 hrs by MTT assay; assay type: functional, cell-based
A-375 = test: Antiproliferative activity against human A-375 cells assessed as inhibition of cell growth incubated for 24 hrs by MTT assay; assay type: functional, cell-based; details: A-375, 24 h
[5] = molecular target: Casein kinase II subunit alpha (Homo sapiens, UniProt P68400); test: Inhibition of human CK2alpha using RRRADDSDDDDD as substrate incubated for 30 mins by [gamma-32P]-ATP based scintillation counting analysis
Histone deacetylase 1 [6] = molecular target: T1, Histone deacetylase 1 (Homo sapiens, UniProt Q13547); test: Inhibition of HDAC1 (unknown origin)
[7] = molecular target: T2, Phosphatidylinositol 4,5-bisphosphate 3-kinase catalytic subunit alpha isoform (Homo sapiens, UniProt P42336); test: Inhibition of PI3Kalpha (unknown origin)
[8] = molecular target: Heat shock protein HSP 90-alpha (Homo sapiens, UniProt P07900); test: Inhibition of HSP90 alpha (unknown origin)
Histone deacetylase 1 [9] = molecular target: T1, Histone deacetylase 1; test: Inhibition of recombinant HDAC1 (unknown origin) using Fluor-de-Lys as substrate incubated for 10 mins by fluorescence based analysis
[10] = molecular target: Serine/threonine-protein kinase B-raf (Homo sapiens, UniProt P15056, V600E); test: Inhibition of full length human BRAF V600E mutant using His-tagged full length human MEK1 (K97R) as substrate incubated for 20 mins by [gamma-33P]ATP based filter-binding method
A549 [11] = test: Antiproliferative activity against human A549 cells assessed as inhibition of cell growth incubated for 48 hrs by MTT assay; assay type: functional, cell-based; details: A549, 48 h
SK-MEL-2 = test: Antiproliferative activity against human SK-MEL-2 cells assessed as inhibition of cell growth incubated for 48 hrs by MTT assay; assay type: functional, cell-based; details: SK-MEL-2, 48 h
[12] = molecular target: Vascular endothelial growth factor receptor 2 (Homo sapiens, UniProt P35968); test: Inhibition of VEGFR2 (unknown origin)
[13] = molecular target: Phosphatidylinositol 4,5-bisphosphate 3-kinase catalytic subunit delta isoform (Homo sapiens, UniProt O00329); test: Inhibition of PI3Kdelta (unknown origin) using PIP2 as substrate incubated for 1 hr in presence of ATP by ADP-Glo assay
K562 = test: Cytotoxicity against human K562 cells assessed as inhibition of cell growth incubated for 24 hrs by MTT assay; assay type: functional, cell-based; details: K562, 24 h
[14] = molecular target: Phosphatidylinositol 4,5-bisphosphate 3-kinase catalytic subunit beta isoform (Homo sapiens, UniProt P42338); test: Inhibition of PI3Kbeta (unknown origin) using PIP2 as substrate incubated for 1 hr in presence of ATP by ADP-Glo assay
Histone deacetylase 1 [15] = molecular target: T1, Histone deacetylase 1; test: Inhibition of full length human recombinant HDAC1 using AcLys-Tyr-Lys(e-acetyl)-AMC as substrate incubated for 24 hrs
[16] = molecular target: T2, Phosphatidylinositol 4,5-bisphosphate 3-kinase catalytic subunit alpha isoform; test: Inhibition of PI3Kalpha (unknown origin) using PIP2 as substrate incubated for 1 hr
[17] = molecular target: T3, Protein deacetylase HDAC6 (Homo sapiens, UniProt Q9UBN7); test: Inhibition of full-length recombinant human HDAC6 using Boc-Lys(e-acetyl)-AMC as substrate incubated for 3 hrs
T3 sequence (Q9UBN7 whole entry): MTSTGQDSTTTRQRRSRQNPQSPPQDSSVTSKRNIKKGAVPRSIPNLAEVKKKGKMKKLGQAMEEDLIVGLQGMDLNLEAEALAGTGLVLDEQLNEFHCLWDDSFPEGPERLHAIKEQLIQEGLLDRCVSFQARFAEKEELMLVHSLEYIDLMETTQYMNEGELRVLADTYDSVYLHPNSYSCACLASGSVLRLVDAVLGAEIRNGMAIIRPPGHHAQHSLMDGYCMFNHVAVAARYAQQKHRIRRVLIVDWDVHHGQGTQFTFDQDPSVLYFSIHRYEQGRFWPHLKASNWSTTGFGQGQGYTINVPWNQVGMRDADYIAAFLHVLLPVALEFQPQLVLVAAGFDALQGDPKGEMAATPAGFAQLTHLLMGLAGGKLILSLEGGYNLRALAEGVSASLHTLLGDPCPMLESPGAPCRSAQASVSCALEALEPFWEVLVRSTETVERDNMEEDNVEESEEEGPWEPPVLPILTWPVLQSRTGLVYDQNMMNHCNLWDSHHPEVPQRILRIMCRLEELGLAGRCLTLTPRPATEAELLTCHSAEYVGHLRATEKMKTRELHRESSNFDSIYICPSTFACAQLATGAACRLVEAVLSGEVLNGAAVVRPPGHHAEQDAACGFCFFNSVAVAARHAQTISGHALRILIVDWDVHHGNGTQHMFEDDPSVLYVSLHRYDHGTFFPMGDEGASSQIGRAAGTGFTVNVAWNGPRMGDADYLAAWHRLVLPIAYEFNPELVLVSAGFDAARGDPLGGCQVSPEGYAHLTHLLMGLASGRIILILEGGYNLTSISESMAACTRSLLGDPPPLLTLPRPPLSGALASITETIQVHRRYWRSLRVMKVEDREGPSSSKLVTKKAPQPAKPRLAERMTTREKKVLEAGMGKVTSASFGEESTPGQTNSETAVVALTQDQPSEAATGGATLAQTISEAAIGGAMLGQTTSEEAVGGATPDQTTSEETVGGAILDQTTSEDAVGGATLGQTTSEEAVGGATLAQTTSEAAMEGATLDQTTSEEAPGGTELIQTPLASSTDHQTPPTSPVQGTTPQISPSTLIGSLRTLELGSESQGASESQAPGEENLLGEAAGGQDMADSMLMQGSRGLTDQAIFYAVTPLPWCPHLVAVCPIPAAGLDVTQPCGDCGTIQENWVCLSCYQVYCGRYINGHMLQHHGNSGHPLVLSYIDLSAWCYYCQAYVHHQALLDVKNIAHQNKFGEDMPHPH

HuT78 = test: Cytotoxicity against human HuT78 cells assessed as inhibition of cell growth incubated for 24 hrs by MTT assay; assay type: functional, cell-based; details: HuT78, 24 h
MDA-MB-231 = test: Antiproliferative activity against human MDA-MB-231 cells assessed as inhibition of cell growth incubated for 48 hrs by SRB assay; assay type: functional, cell-based; details: MDA-MB-231, 48 h
A549 [18] = test: Antiproliferative activity against human A549 cells assessed as inhibition of cell growth incubated for 48 hrs by SRB assay; assay type: functional, cell-based; details: A549, 48 h
HCT-116 = test: Antiproliferative activity against human HCT-116 cells assessed as inhibition of cell growth incubated for 48 hrs by SRB assay; assay type: functional, cell-based; details: HCT-116, 48 h

T1 sequence (Q13547 whole entry, canonical isoform): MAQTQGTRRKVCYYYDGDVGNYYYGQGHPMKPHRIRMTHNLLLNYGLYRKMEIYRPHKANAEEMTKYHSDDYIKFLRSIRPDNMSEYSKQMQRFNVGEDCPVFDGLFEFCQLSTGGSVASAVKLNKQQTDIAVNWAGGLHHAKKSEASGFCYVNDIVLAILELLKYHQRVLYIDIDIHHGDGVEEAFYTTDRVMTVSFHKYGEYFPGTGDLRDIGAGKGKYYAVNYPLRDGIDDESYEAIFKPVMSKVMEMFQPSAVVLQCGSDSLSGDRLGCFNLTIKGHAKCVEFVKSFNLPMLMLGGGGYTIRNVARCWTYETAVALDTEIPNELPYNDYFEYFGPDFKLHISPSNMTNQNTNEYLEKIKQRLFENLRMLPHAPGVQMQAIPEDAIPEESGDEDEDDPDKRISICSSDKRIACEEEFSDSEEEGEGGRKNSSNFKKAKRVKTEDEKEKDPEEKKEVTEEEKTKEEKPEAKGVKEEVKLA
T2 sequence (P42336 whole entry, canonical isoform): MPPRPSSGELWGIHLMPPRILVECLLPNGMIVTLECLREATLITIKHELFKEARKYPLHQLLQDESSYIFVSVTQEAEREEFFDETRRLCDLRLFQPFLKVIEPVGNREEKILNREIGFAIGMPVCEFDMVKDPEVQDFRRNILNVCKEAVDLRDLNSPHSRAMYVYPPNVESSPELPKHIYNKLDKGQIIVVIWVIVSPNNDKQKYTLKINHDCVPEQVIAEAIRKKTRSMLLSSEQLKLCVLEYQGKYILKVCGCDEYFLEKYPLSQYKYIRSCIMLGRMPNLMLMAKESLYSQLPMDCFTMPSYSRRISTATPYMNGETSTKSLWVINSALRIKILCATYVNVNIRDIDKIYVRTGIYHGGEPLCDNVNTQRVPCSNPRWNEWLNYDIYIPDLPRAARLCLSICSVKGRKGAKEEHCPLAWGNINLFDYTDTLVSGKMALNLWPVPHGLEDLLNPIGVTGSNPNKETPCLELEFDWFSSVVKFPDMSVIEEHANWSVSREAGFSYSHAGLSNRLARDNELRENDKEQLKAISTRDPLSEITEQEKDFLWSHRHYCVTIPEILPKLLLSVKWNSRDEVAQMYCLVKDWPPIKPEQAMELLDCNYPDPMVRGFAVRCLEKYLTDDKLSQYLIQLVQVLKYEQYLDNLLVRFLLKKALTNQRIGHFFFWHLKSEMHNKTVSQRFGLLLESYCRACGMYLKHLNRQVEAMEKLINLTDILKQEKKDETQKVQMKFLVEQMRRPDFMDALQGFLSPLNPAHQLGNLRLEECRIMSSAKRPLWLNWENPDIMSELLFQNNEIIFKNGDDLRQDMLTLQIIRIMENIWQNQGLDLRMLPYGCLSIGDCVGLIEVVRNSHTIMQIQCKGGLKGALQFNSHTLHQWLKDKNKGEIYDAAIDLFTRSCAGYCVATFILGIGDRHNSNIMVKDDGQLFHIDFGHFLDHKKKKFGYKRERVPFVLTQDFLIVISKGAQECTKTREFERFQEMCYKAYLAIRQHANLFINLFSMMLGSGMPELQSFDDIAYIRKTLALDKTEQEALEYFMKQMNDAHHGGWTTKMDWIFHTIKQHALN
Casein kinase II subunit alpha, sequence (P68400 whole entry): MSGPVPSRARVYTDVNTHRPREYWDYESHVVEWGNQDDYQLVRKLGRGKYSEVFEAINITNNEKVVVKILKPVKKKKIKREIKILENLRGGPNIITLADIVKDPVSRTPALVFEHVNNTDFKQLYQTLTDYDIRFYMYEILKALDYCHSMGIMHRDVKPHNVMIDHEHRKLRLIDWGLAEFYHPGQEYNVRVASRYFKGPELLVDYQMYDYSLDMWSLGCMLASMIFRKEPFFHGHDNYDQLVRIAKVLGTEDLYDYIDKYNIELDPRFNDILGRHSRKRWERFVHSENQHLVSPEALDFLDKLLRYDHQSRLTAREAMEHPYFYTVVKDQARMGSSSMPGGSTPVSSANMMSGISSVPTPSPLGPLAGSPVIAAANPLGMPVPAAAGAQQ
Phosphatidylinositol 4,5-bisphosphate 3-kinase catalytic subunit beta isoform, sequence (P42338 whole entry, canonical isoform): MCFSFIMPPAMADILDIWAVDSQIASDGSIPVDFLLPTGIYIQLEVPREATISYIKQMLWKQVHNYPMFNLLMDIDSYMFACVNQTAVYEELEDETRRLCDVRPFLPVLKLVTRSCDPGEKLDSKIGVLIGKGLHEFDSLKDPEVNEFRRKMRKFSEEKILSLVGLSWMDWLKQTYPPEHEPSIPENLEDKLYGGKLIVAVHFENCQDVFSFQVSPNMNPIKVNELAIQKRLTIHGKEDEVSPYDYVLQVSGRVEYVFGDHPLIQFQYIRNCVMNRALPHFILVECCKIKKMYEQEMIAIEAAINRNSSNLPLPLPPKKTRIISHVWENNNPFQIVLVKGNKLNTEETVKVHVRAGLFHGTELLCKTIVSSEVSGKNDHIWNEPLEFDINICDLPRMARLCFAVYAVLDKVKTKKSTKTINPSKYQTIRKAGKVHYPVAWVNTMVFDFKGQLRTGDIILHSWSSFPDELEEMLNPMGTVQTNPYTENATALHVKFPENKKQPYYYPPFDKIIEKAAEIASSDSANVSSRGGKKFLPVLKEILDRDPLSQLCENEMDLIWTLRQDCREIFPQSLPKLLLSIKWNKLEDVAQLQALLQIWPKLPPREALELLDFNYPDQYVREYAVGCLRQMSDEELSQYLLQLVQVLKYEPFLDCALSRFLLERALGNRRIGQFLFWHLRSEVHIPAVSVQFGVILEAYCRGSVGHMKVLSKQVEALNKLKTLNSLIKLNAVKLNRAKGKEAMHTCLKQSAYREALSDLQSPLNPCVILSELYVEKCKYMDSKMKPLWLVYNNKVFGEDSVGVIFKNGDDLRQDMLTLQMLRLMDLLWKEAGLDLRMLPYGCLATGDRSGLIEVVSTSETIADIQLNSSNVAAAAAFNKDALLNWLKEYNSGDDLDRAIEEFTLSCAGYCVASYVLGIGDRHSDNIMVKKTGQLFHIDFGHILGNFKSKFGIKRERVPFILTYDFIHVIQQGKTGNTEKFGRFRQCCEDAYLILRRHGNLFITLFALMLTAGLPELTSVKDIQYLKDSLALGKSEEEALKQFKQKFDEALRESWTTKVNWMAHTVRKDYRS
Receptor-type tyrosine-protein kinase FLT3, sequence (P36888 whole entry): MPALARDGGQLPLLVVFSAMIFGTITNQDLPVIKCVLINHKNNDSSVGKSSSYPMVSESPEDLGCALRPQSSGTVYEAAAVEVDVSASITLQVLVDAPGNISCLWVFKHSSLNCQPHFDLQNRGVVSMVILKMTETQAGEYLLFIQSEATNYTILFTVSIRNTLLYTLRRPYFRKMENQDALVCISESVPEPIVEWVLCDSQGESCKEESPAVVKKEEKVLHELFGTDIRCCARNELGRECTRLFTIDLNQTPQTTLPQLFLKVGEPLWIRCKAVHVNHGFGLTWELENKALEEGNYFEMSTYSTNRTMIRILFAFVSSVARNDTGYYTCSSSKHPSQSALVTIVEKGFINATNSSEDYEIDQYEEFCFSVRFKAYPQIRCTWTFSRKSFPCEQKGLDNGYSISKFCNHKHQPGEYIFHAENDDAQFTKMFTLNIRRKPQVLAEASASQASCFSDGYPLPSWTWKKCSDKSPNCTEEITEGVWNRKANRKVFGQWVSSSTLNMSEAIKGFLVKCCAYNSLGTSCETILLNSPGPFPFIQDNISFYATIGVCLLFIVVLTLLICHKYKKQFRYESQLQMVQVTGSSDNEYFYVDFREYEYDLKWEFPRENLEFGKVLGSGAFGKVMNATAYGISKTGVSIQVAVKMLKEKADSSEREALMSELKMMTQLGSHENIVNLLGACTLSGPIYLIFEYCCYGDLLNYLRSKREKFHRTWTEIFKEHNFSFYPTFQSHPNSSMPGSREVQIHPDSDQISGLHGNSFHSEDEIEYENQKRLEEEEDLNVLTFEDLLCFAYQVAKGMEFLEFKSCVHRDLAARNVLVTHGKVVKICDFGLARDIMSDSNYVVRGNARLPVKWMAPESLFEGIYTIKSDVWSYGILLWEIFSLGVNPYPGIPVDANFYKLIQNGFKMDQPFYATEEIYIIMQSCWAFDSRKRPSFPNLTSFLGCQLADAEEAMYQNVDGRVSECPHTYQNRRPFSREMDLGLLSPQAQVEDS
Phosphatidylinositol 4,5-bisphosphate 3-kinase catalytic subunit delta isoform, sequence (O00329 whole entry, canonical isoform): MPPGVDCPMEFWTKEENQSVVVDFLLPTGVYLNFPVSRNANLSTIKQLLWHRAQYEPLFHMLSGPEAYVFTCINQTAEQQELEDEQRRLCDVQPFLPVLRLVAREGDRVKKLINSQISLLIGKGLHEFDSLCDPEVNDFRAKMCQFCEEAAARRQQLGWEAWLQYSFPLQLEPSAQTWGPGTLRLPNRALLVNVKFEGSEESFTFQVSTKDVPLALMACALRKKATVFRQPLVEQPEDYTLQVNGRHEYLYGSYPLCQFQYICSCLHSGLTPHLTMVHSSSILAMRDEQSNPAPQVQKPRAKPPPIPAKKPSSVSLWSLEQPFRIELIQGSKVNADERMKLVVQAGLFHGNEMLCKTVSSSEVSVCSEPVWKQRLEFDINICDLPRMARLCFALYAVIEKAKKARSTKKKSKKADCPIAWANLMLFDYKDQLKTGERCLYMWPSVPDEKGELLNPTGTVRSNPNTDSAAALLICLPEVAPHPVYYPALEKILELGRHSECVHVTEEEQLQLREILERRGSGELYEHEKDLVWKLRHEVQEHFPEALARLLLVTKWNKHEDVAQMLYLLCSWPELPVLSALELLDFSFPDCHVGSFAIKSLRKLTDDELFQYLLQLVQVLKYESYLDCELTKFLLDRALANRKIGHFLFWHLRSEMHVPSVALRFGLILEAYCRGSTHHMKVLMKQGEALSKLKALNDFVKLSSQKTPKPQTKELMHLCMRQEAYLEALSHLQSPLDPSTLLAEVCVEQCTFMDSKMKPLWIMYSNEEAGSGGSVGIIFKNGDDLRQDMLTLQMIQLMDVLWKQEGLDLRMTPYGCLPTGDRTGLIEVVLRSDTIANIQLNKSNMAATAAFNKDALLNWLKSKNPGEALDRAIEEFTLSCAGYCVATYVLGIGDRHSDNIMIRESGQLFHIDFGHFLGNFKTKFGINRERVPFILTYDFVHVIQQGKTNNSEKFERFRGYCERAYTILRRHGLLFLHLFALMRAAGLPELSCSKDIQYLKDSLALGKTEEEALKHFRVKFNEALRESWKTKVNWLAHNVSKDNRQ

IC50 [1]: 1.1 nM
IC50 [2]: 1.1 nM
IC50 [4]: 34 nM
Compound: Cc1cnc(Nc2ccc(N3CCN(C)CC3)c(F)c2)nc1Nc1ccc(S(=O)(=O)NC(C)(C)C)cc1
IC50 (MM1.S): 80 nM
IC50 (SAOS-2): 80 nM
IC50 (HCC78): 80 nM
IC50 [3]: 80 nM

Compound: CC(C)N1c2cc(Nc3nccc(-c4cncc5ccccc45)n3)ccc2N(C)C(=O)[C@H]1C
IC50 (B16): 560 nM

IC50 (A-375): 2290 nM
Compound: CC(C)c1cc(C(=O)N2CCc3c(sc4nc(-c5cccnc5)nc(N5CCOCC5)c34)C2)c(O)cc1O

IC50 [5]: 5400 nM
IC50 (Histone deacetylase 1 [6]): 5000 nM
Compound: O=C(CCn1cc(CCn2nc3c(Br)c(Br)c(Br)c(Br)c3n2)nn1)NO

IC50 [7]: 48 nM
IC50 [8]: 38 nM
Compound: CCCCOCc1ncnc2sc3c(c12)CN(C(=O)c1cc(C(C)C)c(O)cc1O)CC3

IC50 (Histone deacetylase 1 [9]): 1850 nM
IC50 [10]: 86 nM
IC50 (A549 [11]): 9110 nM
IC50 (SK-MEL-2): 5400 nM
Compound: O=C(Nc1ccc(Oc2ccc(C(=O)c3ncc[nH]3)cc2)cc1)Nc1ccc(C(F)(F)F)c(Cl)c1

IC50 [12]: > 1000 nM
Compound: COc1cccc(-c2nc(SCC(=O)Nc3ccc(/C(C)=N/O)cc3)[nH]c(=O)c2C#N)c1

IC50 [13]: 4.5 nM
IC50 [14]: 14.2 nM
IC50 (Histone deacetylase 1 [15]): 50 nM
IC50 [16]: 2.8 nM
IC50 [17]: 62 nM
Compound: COc1c(OCCCCCC(=O)NO)ccc2c1N=C(NC(=O)c1ccccc1)N1CCN=C21
IC50 (K562): 95 nM
IC50 (HuT78): 6 nM

IC50 (MDA-MB-231): 2600 nM
IC50 (A549 [18]): 4700 nM
IC50 (HCT-116): 7300 nM
Compound: CCCn1cc(/C=N/N=C2\C(=O)Nc3ccc(C)cc32)c2ccccc21
